Experimental data as given in patent US20230303599A1, “PRODRUGS OF PHOSPHONAMIDE NUCLEOTIDE ANALOGUES AND THEIR PHARMACEUTICAL USE” (priority 2020, published 2023).
In brackets after ≈: the same amount, converted by molar mass.

Assays:
[1] = Kinetic solubility analysis; format: physicochemical; settings: 1× PBS, 24.2 °C, aqueous buffer, kinetic from dmso stock; pH 7.4 PBS, 1% DMSO, 24-hour incubation at ambient temperature
Description: Example 108: Kinetic Solubility Analysis
Buffer Preparation: 0.1 N HCl: Hydrochloric acid, 0.1 N standardized solution (MP Biomedicals part number 199569). 1×PBS, pH 7.4: Phosphate Buffered Saline (PBS) solution 10× (Fisher Bioreagent part number BP399-500) 50 mL was added to approximately 450 mL HPLC grade H2O. The volume of the solution was then adjusted to 500 mL for a total dilution factor of 1:10 and a final PBS concentration of 1×.
The final DMSO concentration was 1.0% (v/v) and maximum theoretical compound concentration is 100 μM (for compound stock concentration of 10 mM). The filter plate was sealed. Following 24-hour incubation at ambient temperature (24.2-27.5° C.), the samples were vacuum filtered and the filtrates were collected in a 96 well polypropylene plate for analysis. The collection plate was sealed for analysis. Filtrates were injected into the Antek 8060 chemiluminescent nitrogen detector for quantification. The results are reported in μM.
The filtrates were quantified with respect to this calibration curve. Each calculated solubility value was corrected for background nitrogen present in the DMSO and in the medium used to prepare the sample. All reported values for compounds containing adjacent nitrogen atoms in a ring structure were increased by approximately 25%.

[2] = Cytotoxicity assay in primary human hepatocytes (PHHs); format: cell-based; settings: HBV-infected primary human hepatocytes, HBV-infected PHH, Cell Titer Glo, average of at least two independent experiments
Description: Example 107: Cytotoxicity Assay in Primary Human Hepatocytes (PHHs)
The HBV-infected primary human hepatocytes are seeded (20K cells/well in 80 uL of Media) in 384well collagen coated plates pre-spotted with compounds. After 5 days, 40 ul of cell supernatant is removed to quantify HBV DNA levels as described in Example 106. Then, 40 ul Cell Titer Glo Reagent (Promega Catalog Number: G7572) is added to the remaining cells and luminescence is measured on the EnVision microplate reader.

[3] = Cytotoxicity assay in MT-4 cells; format: cell-based; settings: human, uninfected MT-4 cells, average of at least two independent experiments, read-out: MT4 CC50
Description: Compounds were tested in a high-throughput 384-well assay format for their ability to inhibit the replication of HIV-1 (IIIB) in MT-4 cells. Compounds were serially diluted (1:3) in DMSO on 384-well polypropylene plates and further diluted 200-fold into complete RPMI media (10% FBS, 1% P/S) using the Biotek Micro Flow and Labcyte ECHO acoustic dispenser. Each plate contained up to 8 test compounds, with negative (no drug) and positive (5 μM AZT) controls. MT-4 cells were pre-treated with 10 μL of either RPMI (mock-infected) or a fresh 1:250 dilution of HIV-1 IIIB concentrated virus stock. Infected and uninfected MT-4 cells were further diluted in complete RPMI media and added to each plate using a Micro Flow dispenser. After 5 days incubation in a humidified and temperature-controlled incubator (37° C.), Cell Titer Glo (Promega) was added to the assay plates and chemiluminescence read using an Envision plate-reader. EC50 values were defined as the compound concentration that causes a 50% decrease in luminescence signal and were calculated using a sigmoidal dose-response model to generate curve fits and are shown in Table 1.
Example 105: Cytotoxicity Assay in MT-4 Cells
Assays were performed as described in Example 104 except uninfected MT-4 cells were added to each well containing test compound. In addition, 10 μM puromycin was added to the last column of each assay plate to assess a base level of cytotoxicity.

solubility kinetic at 24 h [1] | Compound | CC50 at 5 days [2] | CC50 at 5 days [3]
1 µg/mL (≈ 1.42 µM) | CCC[C@H]1CC[C@H](OC(=O)C(C)(C)NP(=O)(CO[C@H](C)Cn2cnc3c(N)ncnc32)NC(C)(C)C(=O)O[C@H]2CC[C@H](CCC)CC2)CC1 [Example 27] | > 0.1 µM | 
 | CCCCCCOC(=O)C(CC)(CC)NP(=O)(CO[C@H](C)Cn1cnc2c(N)ncnc21)NC(CC)(CC)C(=O)OCCCCCC [Example 65, Dihexyl 2,2′-(((((1-(6-amino-9H-purin-9-yl)propan-2-yl)oxy)methyl)phosphoryl)bis(azanediyl))(R)-bis(2-ethylbutanoate)] | > 0.1 µM | 6.71 µM
< 1 µg/mL | C[C@H](Cn1cnc2c(N)ncnc21)OCP(=O)(NC(C)(C)C(=O)OCCC12CC(C1)C2)NC(C)(C)C(=O)OCCC12CC(C1)C2 [Example 62, Bis(2-(bicyclo[1.1.1]pentan-1-yl)ethyl) 2,2′-(((((1-(6-amino-9H-purin-9-yl)propan-2-yl)oxy)methyl)phosphoryl)bis(azanediyl))(R)-bis(2-methylpropanoate)] | > 0.1 µM | 3.19 µM
< 1 µg/mL | CCCCCCCCCCCC(=O)Nc1ncnc2c1ncn2C[C@@H](C)OCP(=O)(NC(C)(C)C(=O)OCCCCCC)NC(C)(C)C(=O)OCCCCCC [Example 30, Dihexyl 2,2′-(((((1-(6-dodecanamido-9H-purin-9-yl)propan-2-yl)oxy)methyl)phosphoryl)bis(azanediyl))(R)-bis(2-methylpropanoate)] | > 0.1 µM | 
 | CCCCCCCOC(=O)C(C)(C)NP(=O)(CO[C@H](C)Cn1cnc2c(N)ncnc21)NC(C)(C)C(=O)OCCCCCCC [Example 66, Diheptyl 2,2′-(((((1-(6-amino-9H-purin-9-yl)propan-2-yl)oxy)methyl)phosphoryl)bis(azanediyl))(R)-bis(2-methylpropanoate)] | > 0.1 µM | 4.77 µM
12 µg/mL (≈ 16.9 µM) | CCCCCCOC(=O)C(C)(C)NP(=O)(CO[C@H](C)Cn1cnc2c(NC(=O)OCCC)ncnc21)NC(C)(C)C(=O)OCCCCCC [Example 31, Dihexyl 2,2′-(((((1-(6-((propoxycarbonyl)amino)-9H-purin-9-yl)propan-2-yl)oxy)methyl)phosphoryl)bis(azanediyl))(R)-bis(2-methylpropanoate)] | > 0.1 µM | 9.01 µM
2 µg/mL (≈ 2.45 µM) | CCCCCCOC(=O)C(C)(C)NP(=O)(CO[C@H](C)Cn1cnc2c(NC(=O)OCCOC(=O)c3ccccc3)ncnc21)NC(C)(C)C(=O)OCCCCCC [Example 94, Dihexyl 2,2′-(((((1-(6-(((2-(benzoyloxy)ethoxy)carbonyl)amino)-9H-purin-9-yl)propan-2-yl)oxy)methyl)phosphoryl)bis(azanediyl))(R)-bis(2-methylpropanoate)] | > 0.1 µM | 8.22 µM
1 µg/mL (≈ 1.29 µM) | C[C@H](Cn1cnc2c(N)ncnc21)OCP(=O)(NC(C)(C)C(=O)O[C@H]1CC[C@H](c2ccccc2)CC1)NC(C)(C)C(=O)O[C@H]1CC[C@H](c2ccccc2)CC1 [Example 93, Bis(trans-4-phenylcyclohexyl) 2,2′-((((((R)-1-(6-amino-9H-purin-9-yl)propan-2-yl)oxy)methyl)phosphoryl)bis(azanediyl))bis(2-methylpropanoate)] |  | 5.47 µM
57 µg/mL (≈ 91.7 µM) | CCCCCCOC(=O)C(C)(C)NP(=O)(CO[C@H](C)Cn1cnc2c(N)ncnc21)NC(C)(C)C(=O)OCC12CC(C1)C2 (stereo partly drawn) [Example 77, Bicyclo[1.1.1]pentan-1-ylmethyl 2-((((((R)-1-(6-amino-9H-purin-9-yl)propan-2-yl)oxy)methyl)((1-(hexyloxy)-2-methyl-1-oxopropan-2-yl)amino)phosphoryl)amino)-2-methylpropanoate] | > 0.1 µM | > 50 µM
7 µg/mL (≈ 7.94 µM) | CCCCCCOC(=O)C(C)(C)NP(=O)(CO[C@H](C)Cn1cnc2c(NC(=O)OCC(C)(C)C(=O)OCc3oc(=O)oc3C)ncnc21)NC(C)(C)C(=O)OCCCCCC [Example 98, Dihexyl 2,2′-(((((1-(6-(((2,2-dimethyl-3-((5-methyl-2-oxo-1,3-dioxol-4-yl)methoxy)-3-oxopropoxy)carbonyl)amino)-9H-purin-9-yl)propan-2-yl)oxy)methyl)phosphoryl)bis(azanediyl))(R)-bis(2-methylpropanoate)] |  | 24.5 µM
60 µg/mL (≈ 111 µM) | CCCOC(=O)C(C)(C)NP(=O)(CO[C@H](C)Cn1cnc2c(N)ncnc21)NC(C)(C)C(=O)OCCC [Example 36, Dipropyl 2,2′-(((((1-(6-amino-9H-purin-9-yl)propan-2-yl)oxy)methyl)phosphoryl)bis(azanediyl))(R)-bis(2-methylpropanoate)] |  | 8.96 µM
12 µg/mL (≈ 18.4 µM) | CCCCCCOC(=O)C(C)(C)NP(=O)(CO[C@H](C)Cn1cnc2c(N)ncnc21)N[C@]1(C(=O)OCCCCCC)C[C@H]1CC (stereo partly drawn) [Example 16, Hexyl (1R,2R)-1-((((((R)-1-(6-amino-9H-purin-9-yl)propan-2-yl)oxy)methyl)((1-(hexyloxy)-2-methyl-1-oxopropan-2-yl)amino)phosphoryl)amino)-2-ethylcyclopropane-1-carboxylate] |  | 6.41 µM
< 1 µg/mL | C[C@H](Cn1cnc2c(N)ncnc21)OCP(=O)(NC(C)(C)C(=O)OC1CCC2(CCCC2)CC1)NC(C)(C)C(=O)OC1CCC2(CCCC2)CC1 (stereo partly drawn) [Example 61, Di(spiro[4.5]decan-8-yl) 2,2′-(((((1-(6-amino-9H-purin-9-yl)propan-2-yl)oxy)methyl)phosphoryl)bis(azanediyl))(R)-bis(2-methylpropanoate)] | > 0.1 µM | 6 µM
54 µg/mL (≈ 94.8 µM) | CC(C)COC(=O)C(C)(C)NP(=O)(CO[C@H](C)Cn1cnc2c(N)ncnc21)NC(C)(C)C(=O)OCC(C)C [Example 35, Diisobutyl 2,2′-(((((1-(6-amino-9H-purin-9-yl)propan-2-yl)oxy)methyl)phosphoryl)bis(azanediyl))(R)-bis(2-methylpropanoate)] |  | 4.35 µM
60 µg/mL (≈ 71.4 µM) | CCCCCCOC(=O)C(C)(C)NP(=O)(CO[C@H](C)Cn1cnc2c(NC(=O)OCC(=O)OCc3oc(=O)oc3C)ncnc21)NC(C)(C)C(=O)OCCCCCC [Example 95, Dihexyl 2,2′-(((((1-(6-(((2-((5-methyl-2-oxo-1,3-dioxol-4-yl)methoxy)-2-oxoethoxy)carbonyl)amino)-9H-purin-9-yl)propan-2-yl)oxy)methyl)phosphoryl)bis(azanediyl))(R)-bis(2-methylpropanoate)] |  | 14.8 µM
92 µg/mL (≈ 125 µM) | CCCCCCOC(=O)C(C)(C)NP(=O)(CO[C@H](C)Cn1cnc2c(NC(=O)[C@H]3CCC(=O)O3)ncnc21)NC(C)(C)C(=O)OCCCCCC [Example 96, Dihexyl 2,2′-((((((R)-1-(6-((R)-5-oxotetrahydrofuran-2-carboxamido)-9H-purin-9-yl)propan-2-yl)oxy)methyl)phosphoryl)bis(azanediyl))bis(2-methylpropanoate)] |  | 11 µM
